{
  "source": "patent US20180344735A1",
  "about": "“USE OF sGC STIMULATORS FOR THE TREATMENT OF GASTROINTESTINAL SPHINCTER DYSFUNCTION” (Ironwood Pharmaceuticals, Inc., priority 2015, published 2018)",
  "key": {"[1]": {"tested_on": "human lower esophageal sphincter (LES) tissues", "experiment": "Ex vivo relaxation of carbachol-pre-contracted human lower esophageal sphincter (LES) muscle strips, organ bath", "assay_type": "cell-based", "method": "The objective of this study was to determine the relaxation effects of two sGC stimulators, Compound A and Compound B (depicted below) on human lower esophageal sphincter (LES) tissues ex vivo. Human lower esophageal sphincter muscle strips were mounted in a wire myograph apparatus and pre-contracted with carbachol (Cch). A cumulative concentration response curve (CCRC) of Compound A and Compound B was then performed on the tissues. The concentration response was performed with the compounds alone, and/or with the test compounds in the presence of a fixed concentration of the NO donor DETA-NONOate.\nCompound A and Compound B were stored at room temperature. On each experimental day, 10 mM stock of the test compound was prepared in DMSO. Further dilutions up to 0.1 μM were made serially in ethanol, and subsequently in distilled water, depending on solubility of the compounds in those solvents. Compound A and Compound B Vehicle solutions were made by following the same serial dilution methods\nDETA-NONOate was stored at −20° C. On each experimental day, a stock solution of 100 mM was prepared in Phosphate Buffered Saline (PBS), pH 8 (Boston Bioproducts). A 1:10 dilution from the stock was made in PBS pH 8, to obtain a concentration of 10 mM.\nSNP was stored at −20° C. On each experimental day, a stock solution of 100 mM was prepared in distilled water. 25 μl of the 100 mM stock was added to each bath for a final concentration of 100 μM in bath.\nTissues were obtained postmortem. Only macroscopically normal tissue that was obtained from donors with no known recent history of gastrointestinal disease.\nHuman LES mucosa-free muscle strips, of approximately 15 mm in length and 2-3 mm width were dissected free from surrounding tissue and mounted on tissue posts in 25 mL organ baths (Panlab 16 channel automated organ bath and thermostatic controller) containing physiological saline solution (PSS; composition: 119.0 mM NaCl, 4.70 mM KCl, 1.20 mM MgSO4, 24.9 mM NaHCO3, 1.20 mM KH2PO4, 2.50 mM CaCl2, 11.1 mM glucose), aerated with 95% O2/5% CO2, warmed and maintained at approximately 37° C. The PSS solution was supplemented with 1 μM indomethacin. The LES strips were mounted on the tissue posts and allowed to equilibrate for approximately 30 minutes.\nThe LES strips were set to a tension of 2.0 g+0.2 g. Baths were washed approximately every 15 minutes over a 60-minute period, with re-tensioning to 2.0±0.2 g if tension dropped below 1.0 g.\nThe viability of the LES muscle strips was tested by application of 80 mM KCl, looking for maximum contractility response. Upon plateau all baths were washed three times with PSS and the tension was allowed to return to baseline levels. The strips that responded to the KCl functional check were used for CCh-induced contractions.\nFor each one of compounds A and B, experiments were conducted with LES tissues from two human donors on two separate days.\nUpon stabilization of baseline tension, each of the following experiments was allocated to one bath such that 9 or more muscle strips were set up for each compound on each experimental day.\nCompound A Experiments with tissues from Donor 1: • 1. CCRC to DETA-NO vehicle • 2. CCRC to Compound A vehicle • 3. CCRC to DETA-NO • 4. CCRC to DETA-NO • 5. CCRC to Compound A • 6. CCRC to Compound A • 7. Since DETA-NO relaxed LES, a CCRC to Compound A was performed in the presence of DETA-NO at a sub-threshold concentration (1 μM, determined in conditions 3 and 4) • 8. CCRC to Compound A in the presence of DETA-NO ([…]) • 9. CCRC to Compound A vehicle in the presence of DETA-NO ([…]).\nCompound A Experiments with tissues from Donor 2: • 1. CCRC to Compound A vehicle • 2. CCRC to Compound A vehicle • 3. CCRC to Compound A vehicle in the presence of 10 μM DETA-NO • 4. CCRC to Compound A vehicle in the presence of 30 μM DETA-NO • 5. CCRC to Compound A • 6. CCRC to Compound A • 7. CCRC to Compound A in the presence of 10 μM DETA-NO • 8. CCRC to Compound A in the presence of 10 μM DETA-NO • 9. […]"}, "[2]": {"tested_on": "achalasia patients", "conditions": "report from 2000; cited from earlier work"}, "[3]": {"conditions": "10 μM compound in the presence of 30 μM DETA-NO"}, "[4]": {"conditions": "in the presence of 30 μM DETA-NO"}},
  "data": [
    {"smiles": "OC(CNc1nc(-c2cc(-c3ccon3)n(Cc3ccccc3F)n2)ncc1F)(C(F)(F)F)C(F)(F)F", "note": "[Compound A]", "values": [
      {"measurement": "relaxation", "setting": "[1]; 10 μM compound in the presence of 1 μM DETA-NO, donor 1", "result": 16, "unit": "%"},
      {"measurement": "maximum relaxation", "setting": "[1]; 10 μM compound in the presence of 10 μM DETA-NO, donor 2, N=4", "result": 38, "unit": "%"},
      {"measurement": "maximum relaxation", "setting": "[1]; 10 μM compound, absence of NO, first donor, N=2", "result": 49, "unit": "%"},
      {"measurement": "maximum relaxation", "setting": "[1]; 10 μM compound, absence of NO, second donor, N=2", "result": 31, "unit": "%"},
      {"measurement": "maximum relaxation", "setting": "[1]; in the presence of 30 μM DETA-NO, donor 2, N=3", "result": 51, "unit": "%"}
    ]},
    {"smiles": "NC(=O)[C@](O)(CNc1nc(-c2cc(-c3ccon3)n(Cc3ccccc3F)n2)ncc1F)C(F)(F)F", "note": "[Compound B]", "values": [
      {"measurement": "maximum relaxation relative to isoprenaline", "setting": "[1]; [3]", "result": 77, "unit": "%"},
      {"measurement": "maximum relaxation relative to isoprenaline", "setting": "[1]; 10 μM compound, absence of NO, N=8", "result": 47, "unit": "%"},
      {"measurement": "EC50", "setting": "[1]; [4]", "result": 1700, "unit": "nM"}
    ]},
    {"smiles": "COC(=O)N(C)c1c(N)nc(-c2nn(Cc3ccccc3F)c3ncccc23)nc1N", "note": "[Compound C]", "values": [
      {"measurement": "maximum relaxation relative to isoprenaline", "setting": "[1]; [3]", "result": 90, "unit": "%"},
      {"measurement": "EC50", "setting": "[1]; [4]", "result": 500, "unit": "nM"}
    ]},
    {"smiles": "C[C@@]1(C(F)(F)F)C(=O)Nc2nc(-c3nn(Cc4ncccc4F)c4ncc(F)cc34)nc(NCCC(F)(F)F)c21", "note": "[Compound D]", "values": [
      {"measurement": "maximum relaxation relative to isoprenaline", "setting": "[1]; [3]", "result": 80, "unit": "%"},
      {"measurement": "EC50", "setting": "[1]; [4]", "result": 1600, "unit": "nM"}
    ]},
    {"smiles": "Fc1ccccc1Cn1nc(-c2nc(C(F)(F)F)n[nH]2)c2cccnc21", "note": "[Compound E]", "values": [
      {"measurement": "maximum relaxation relative to isoprenaline", "setting": "[1]; [3]", "result": 89, "unit": "%"},
      {"measurement": "EC50", "setting": "[1]; [4]", "result": 530, "unit": "nM"}
    ]},
    {"smiles": "NCCN(CCN)/[N+]([O-])=N/O", "note": "[DETA-NO, diethylenetriamine/NO, reference compound]", "values": [
      {"measurement": "mean percentage relaxation", "setting": "[1]; 10 μM DETA-NO alone, second donor, N=5", "result": 8, "unit": "%"},
      {"measurement": "mean relaxation relative to isoprenaline", "setting": "[1]; 30 μM DETA-NO alone, Compound B experiments, N=12", "result": 7.6, "unit": "%"},
      {"measurement": "mean percentage relaxation", "setting": "[1]; 30 μM DETA-NO alone, second donor, N=4", "result": 13, "unit": "%"}
    ]},
    {"smiles": "CCCc1nn(C)c2c(=O)[nH]c(-c3cc(S(=O)(=O)N4CCN(C)CC4)ccc3OCC)nc12", "note": "[sildenafil]", "values": [
      {"measurement": "effect on LES pressure", "setting": "[2]", "result": "able to reduce LES pressure"},
      {"measurement": "effect on clinical symptoms", "setting": "[2]", "result": "clinical symptoms were not improved"}
    ]}
  ]
}
